Assay results reported in patent US11959086B2, “Dual transit peptides for targeting polypeptides” (BASF AGRO B.V., priority 2016, dated 2024).

Assays:
Test in all cases: Herbicide injury evaluation of Arabidopsis plants, greenhouse
Assay type in all cases: in vivo
[1] = tested on: Wildtype/non-transgenic Arabidopsis thaliana; conditions: scale 0-100
[2] = tested on: transgenic Arabidopsis thaliana, transgene SEQ ID NO 117; conditions: Table 3, scale 0-100
[3] = tested on: transgenic Arabidopsis thaliana, transgene SEQ ID NO 118; conditions: scale 0-100
[4] = tested on: transgenic Arabidopsis thaliana, transgene SEQ ID NO 121; conditions: Table 3, scale 0-100
[5] = tested on: transgenic Arabidopsis thaliana, transgene SEQ ID NO 128; conditions: Table 3, scale 0-100
[6] = tested on: transgenic Arabidopsis thaliana, transgene SEQ ID NO 120; conditions: Table 4, scale 0-100

## C#CCN1C(=O)COc2cc(F)c(N3C(=O)C4=C(CCCC4)C3=O)cc21 [Flumioxazin, flumioxazin]
[1]; Table 3, 140 g ai/ha + 1% MSO
  Herbicide injury evaluation 14 days after herbicide treatment: 100
[1]; Table 3, 280 g ai/ha + 1% MSO
  Herbicide injury evaluation 14 days after herbicide treatment: 100
[1]; Table 3, 420 g ai/ha + 1% MSO
  Herbicide injury evaluation 14 days after herbicide treatment: 100
[1]; Table 4, 140 g ai/ha + 1% MSO
  Herbicide injury evaluation 14 days after herbicide treatment: 100
[1]; Table 4, 280 g ai/ha + 1% MSO
  Herbicide injury evaluation 14 days after herbicide treatment: 100
[1]; Table 4, 420 g ai/ha + 1% MSO
  Herbicide injury evaluation 14 days after herbicide treatment: 100
[2]; SEQ ID NO 117 C, 140 g ai/ha + 1% MSO
  Herbicide injury evaluation 14 days after herbicide treatment: 94
[2]; SEQ ID NO 117 C, 280 g ai/ha + 1% MSO
  Herbicide injury evaluation 14 days after herbicide treatment: 95
[2]; SEQ ID NO 117 C, 420 g ai/ha + 1% MSO
  Herbicide injury evaluation 14 days after herbicide treatment: 95
[2]; SEQ ID NO 117 I, 140 g ai/ha + 1% MSO
  Herbicide injury evaluation 14 days after herbicide treatment: 90
[2]; SEQ ID NO 117 I, 280 g ai/ha + 1% MSO
  Herbicide injury evaluation 14 days after herbicide treatment: 94
[2]; SEQ ID NO 117 I, 420 g ai/ha + 1% MSO
  Herbicide injury evaluation 14 days after herbicide treatment: 97
[3]; Table 3, SEQ ID NO 118 Q, 140 g ai/ha + 1% MSO
  Herbicide injury evaluation 14 days after herbicide treatment: 48
[3]; Table 3, SEQ ID NO 118 Q, 280 g ai/ha + 1% MSO
  Herbicide injury evaluation 14 days after herbicide treatment: 60
[3]; Table 3, SEQ ID NO 118 Q, 420 g ai/ha + 1% MSO
  Herbicide injury evaluation 14 days after herbicide treatment: 60
[3]; Table 3, SEQ ID NO 118 R, 140 g ai/ha + 1% MSO
  Herbicide injury evaluation 14 days after herbicide treatment: 23
[3]; Table 3, SEQ ID NO 118 R, 280 g ai/ha + 1% MSO
  Herbicide injury evaluation 14 days after herbicide treatment: 28
[3]; Table 3, SEQ ID NO 118 R, 420 g ai/ha + 1% MSO
  Herbicide injury evaluation 14 days after herbicide treatment: 28
[3]; Table 4, SEQ ID NO 118 Q, 140 g ai/ha + 1% MSO
  Herbicide injury evaluation 14 days after herbicide treatment: 60
[3]; Table 4, SEQ ID NO 118 Q, 280 g ai/ha + 1% MSO
  Herbicide injury evaluation 14 days after herbicide treatment: 65
[3]; Table 4, SEQ ID NO 118 Q, 420 g ai/ha + 1% MSO
  Herbicide injury evaluation 14 days after herbicide treatment: 70
[3]; Table 4, SEQ ID NO 118 R, 140 g ai/ha + 1% MSO
  Herbicide injury evaluation 14 days after herbicide treatment: 63
[3]; Table 4, SEQ ID NO 118 R, 280 g ai/ha + 1% MSO
  Herbicide injury evaluation 14 days after herbicide treatment: 60
[3]; Table 4, SEQ ID NO 118 R, 420 g ai/ha + 1% MSO
  Herbicide injury evaluation 14 days after herbicide treatment: 35
[4]; SEQ ID NO 121 G, 140 g ai/ha + 1% MSO
  Herbicide injury evaluation 14 days after herbicide treatment: 100
[4]; SEQ ID NO 121 G, 280 g ai/ha + 1% MSO
  Herbicide injury evaluation 14 days after herbicide treatment: 100
[4]; SEQ ID NO 121 G, 420 g ai/ha + 1% MSO
  Herbicide injury evaluation 14 days after herbicide treatment: 100
[4]; SEQ ID NO 121 H, 140 g ai/ha + 1% MSO
  Herbicide injury evaluation 14 days after herbicide treatment: 100
[4]; SEQ ID NO 121 H, 280 g ai/ha + 1% MSO
  Herbicide injury evaluation 14 days after herbicide treatment: 100
[4]; SEQ ID NO 121 H, 420 g ai/ha + 1% MSO
  Herbicide injury evaluation 14 days after herbicide treatment: 100
[5]; SEQ ID NO 128 D, 140 g ai/ha + 1% MSO
  Herbicide injury evaluation 14 days after herbicide treatment: 100
[5]; SEQ ID NO 128 D, 280 g ai/ha + 1% MSO
  Herbicide injury evaluation 14 days after herbicide treatment: 94
[5]; SEQ ID NO 128 D, 420 g ai/ha + 1% MSO
  Herbicide injury evaluation 14 days after herbicide treatment: 93
[5]; SEQ ID NO 128 E, 140 g ai/ha + 1% MSO
  Herbicide injury evaluation 14 days after herbicide treatment: 93
[5]; SEQ ID NO 128 E, 280 g ai/ha + 1% MSO
  Herbicide injury evaluation 14 days after herbicide treatment: 99
[5]; SEQ ID NO 128 E, 420 g ai/ha + 1% MSO
  Herbicide injury evaluation 14 days after herbicide treatment: 100
[6]; SEQ ID NO 120 J, 140 g ai/ha + 1% MSO
  Herbicide injury evaluation 14 days after herbicide treatment: 95
[6]; SEQ ID NO 120 J, 280 g ai/ha + 1% MSO
  Herbicide injury evaluation 14 days after herbicide treatment: 85
[6]; SEQ ID NO 120 J, 420 g ai/ha + 1% MSO
  Herbicide injury evaluation 14 days after herbicide treatment: 95
[6]; SEQ ID NO 120 M, 140 g ai/ha + 1% MSO
  Herbicide injury evaluation 14 days after herbicide treatment: 75
[6]; SEQ ID NO 120 M, 280 g ai/ha + 1% MSO
  Herbicide injury evaluation 14 days after herbicide treatment: 98
[6]; SEQ ID NO 120 M, 420 g ai/ha + 1% MSO
  Herbicide injury evaluation 14 days after herbicide treatment: 98
